Patent publication US12036195B2, “Co-crystals of NURR1-lbd in complex with a cyclopentenone prostaglandin and modulators of NURR1” (Nanyang Technological University, priority 2016, dated 2024)

Tests used:
Nurr1 [1] = molecular target: T1, Nurr1 (Homo sapiens, UniProt P43354); details: high throughput screening of >340,000 compounds; cited from earlier work
Nurr1-LBD [2] = molecular target: T2, Nurr1-LBD (Homo sapiens, UniProt P43354); assay: 2D 1H-15N HSQC NMR chemical shift perturbation on Nurr1-LBD; type: binding; details: 15N-labeled Nurr1-LBD, 1:10 molar ratio protein:ligand; residues in helix 11 and 12 perturbed
T2 construct: The human Nurr1-LBD construct coding for residues 328-598 (hNurr1-LBD) was cloned into pETSUMO expression vector; SUMO tag (pETSUMO vector, purified on Ni2+-NTA) (cleaved yes); made in house; host or cells: E. coli BL21 (DE3)
T2 sequence (P43354 328-598): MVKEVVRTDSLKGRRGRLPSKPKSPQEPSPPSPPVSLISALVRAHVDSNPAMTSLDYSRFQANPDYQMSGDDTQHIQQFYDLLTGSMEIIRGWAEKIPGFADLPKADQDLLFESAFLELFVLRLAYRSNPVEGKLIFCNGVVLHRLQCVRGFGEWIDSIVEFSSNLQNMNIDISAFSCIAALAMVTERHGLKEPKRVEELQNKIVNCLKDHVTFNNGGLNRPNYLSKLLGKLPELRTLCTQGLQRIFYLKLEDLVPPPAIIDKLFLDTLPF
Procedure: 0.2 mM uniformly ^15-N labeled Nurr1-LBD protein was prepared in 20 mM sodium phosphate buffer containing 50 mM NaCl, 0.01% NaN3 (pH 7.5) in 90% H2O/10% D2O. The interaction between Nurr1-LBD and PGA1/PGA2 (in DMSO vehicle) was examined using two dimensional HSQC comparing free protein sample with 1:10 molar ratio of Nurr1-LBD:PGA1/PGA2. The backbone resonance and sequence specific resonance assignments were previously assigned for Nurr1-LBD as reported (Kim, et. al. Proc Nat Acad Sci 112, 8756-8761 (2015)). The binding sites of PGA1/PGA2 were mapped on the crystal structure of Nurr1-LBD (PDB code: 1OVL) after determining the chemical shift perturbations following the addition of PGA1/PGA2 against the spectrum of the free protein. Bruker Avance II 700 MHz spectrometer fitted with a 5 mm triple resonance, z-axis-gradient cryoprobe at 298K was used for all NMR experiments. All spectra were processed directly to SPARKY format in UNIX and analyzed using the SPARKY 3.114 program (Goddard and Kneller, SPARKY In, 3.114 Edition: Univ of Calif (2002)).
Prostaglandins are a family of biologically potent lipids from membrane phospholipids; comprised of a C20-unsaturated fatty acid containing a cyclopentenone ring. […]

Nurr1-LBD [3] = molecular target: T2, Nurr1-LBD; assay: Top-down mass spectrometry of covalent coupling to Nurr1-LBD; type: binding; details: overnight incubation at 1:1.5 molar ratio
Procedure: Nurr1-LBD at ˜300 μM prepared in 0.1% FA in water was analyzed using a Dionex UltiMate 3000 UHPLC coupled to a linear quadrupole ion trap-Fourier transform Ultra apparatus (LTQ-FT Ultra, Thermo Scientific Inc.). Protein solution (5 μL) was injected directly into the detector carried by 0.1% FA in water at 500 μL/min. On-line ionization was performed using a Michrom CaptiveSpray ion source (Bruker-Michrom Inc., Auburn, USA) at an electrospray potential of 1.5 kV and capillary temperature of 200° C. Data acquisition was conducted in profile and positive mode (600-1600 m/z range). Mass spectrometry (MS) data was acquired for 60 min in the FT-ICR cell at a resolution of 100,000 (at 400 m/z) and maximum injection time of 500 msec using Xcalibur version 2.0 SR2 (Thermo Scientific Inc., Bremen, Germany). The automatic gain control target for FT-ICR was set to 5.0e+05. For each scan 100 microscans were averaged. […]
To exclude the possibility that the covalent coupling of PGA1/PGA2 to human Nurr1-LBD domain seen in the crystal structures was an artifact of crystallization or exposure to high-intensity X-rays, Nurr1-LBD at ˜ 300 μM prepared in 0.1% FA in water was analyzed using a Dionex UltiMate 3000 UHPLC coupled to a linear quadrupole ion trap-Fourier transform Ultra apparatus (LTQ-FT Ultra, Thermo Scientific Inc.). […]

LRRK2 G2019S Drosophila = assay: Climbing assay and survival in LRRK2 G2019S Drosophila; type: in vivo, Drosophila melanogaster
Procedure: FIG. 4. Mitigation of locomotor deficits and mortality in LRRK2 G2019S Drosophila by CyPGs. Drosophila melanogaster expressing LRRK2 G2019S mutation driven by ddc-Gal4 result in late-onset PD in these flies. Treatment with 50 μM PGA2 was able to improve their climbing ability from 9.7% to 36.4% when compared to age-matched mutant flies (0.5% EtOH drug vehicle). Survival rate was determined by counting the number of flies that survived every 2-3 days for 55 days post-eclosion. Flies were treated with cornmeal-agar medium containing 50 μM PGA2 for 25 days at day 30 post-eclosion and climbing assay was carried out on day 55. The number of flies that climbed beyond a median line in a vertical column (length 25 cm; diameter 1.5 cm) were counted after one minute for an average of six times. Results represent mean±SEM of climbing scores from three independent experiments. Student's t-test (unpaired) was conducted to determine statistical significance between G2019S (vehicle treated) and PGA2-treated mutant flies: *p<0.05.
Flies expressing Leucine-rich repeat kinase 2 (LRRK2) with G2019S mutation driven by dopa decarboxylase (ddc)-Gal4 leads to late-onset PD in these flies (Liu, et al. Proc Natl Acad Sci USA 105, 2693-2698, doi:10.1073/pnas.0708452105 (2008)). […]

HL60 cells = details: direct interaction with mitochondria; cited from earlier work
Nurr1 [4] = molecular target: T1, Nurr1; details: binding with Nurr1-LBD at its non-canonical ligand-binding site; cited from earlier work

T1 sequence (P43354 whole entry, species assumed, the tested form may be a part): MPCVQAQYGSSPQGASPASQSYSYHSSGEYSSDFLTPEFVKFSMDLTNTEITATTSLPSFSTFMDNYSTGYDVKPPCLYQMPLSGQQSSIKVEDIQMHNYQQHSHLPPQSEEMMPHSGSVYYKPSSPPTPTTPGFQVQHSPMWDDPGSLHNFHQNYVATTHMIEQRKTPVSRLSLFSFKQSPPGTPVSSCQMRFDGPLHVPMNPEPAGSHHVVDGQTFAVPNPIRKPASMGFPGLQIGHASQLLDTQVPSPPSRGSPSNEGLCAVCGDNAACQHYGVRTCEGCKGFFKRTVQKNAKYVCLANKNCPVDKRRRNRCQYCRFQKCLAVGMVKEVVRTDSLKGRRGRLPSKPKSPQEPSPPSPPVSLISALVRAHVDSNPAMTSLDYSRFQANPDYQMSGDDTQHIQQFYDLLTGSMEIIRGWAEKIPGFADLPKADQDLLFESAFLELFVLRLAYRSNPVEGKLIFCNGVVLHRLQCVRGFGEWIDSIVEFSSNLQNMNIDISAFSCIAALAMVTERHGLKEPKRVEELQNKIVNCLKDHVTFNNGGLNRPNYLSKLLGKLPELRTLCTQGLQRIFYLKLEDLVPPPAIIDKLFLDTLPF

## Sc1ncnc2nc[nH]c12 [6-mercaptopurine]
Nurr1 [1]
  activation of Nurr1: activate Nurr1 through a region in the amino terminus lacking a LBD

## CCCCCC(O)/C=C/[C@H]1C=CC(=O)[C@@H]1CCCCCCC(=O)O (stereo partly shown) [PGA1, prostaglandin A1]
Nurr1-LBD [2]
  interaction with Nurr1-LBD by chemical shift perturbations: direct physical interaction
Nurr1-LBD [3]
  fraction of Nurr1 that binds the ligand covalently: about 50%

## CCCCCC(O)/C=C/[C@H]1C=CC(=O)[C@@H]1C/C=C\CCCC(=O)O (stereo partly shown) [PGA2, prostaglandin A2]
Nurr1-LBD [2]
  interaction with Nurr1-LBD by chemical shift perturbations: direct physical interaction
LRRK2 G2019S Drosophila; 50 μM in medium for 25 days from day 30 post-eclosion, assay on day 55, vehicle-treated mutant flies 9.7%
  climbing ability: 36.4%
LRRK2 G2019S Drosophila; PGA2 treated flies compared to vehicle treated mutant flies, 55 days post-eclosion
  overall survival rate: improvement to their overall survival rate
Nurr1-LBD [3]
  fraction of Nurr1 that binds the ligand covalently: about 50%
HL60 cells
  apoptosis in HL60 cells: induce intrinsic apoptosis in HL60 cells

## CCN(CC)Cc1cc(Nc2ccnc3cc(Cl)ccc23)ccc1O [amodiaquine]
Nurr1 [4]
  transcriptional function of Nurr1: enhance the transcriptional function of Nurr1

## CCN(CC)CCCC(C)Nc1ccnc2cc(Cl)ccc12 (stereo not shown) [chloroquine]
Nurr1 [4]
  transcriptional function of Nurr1: enhance the transcriptional function of Nurr1
